Assay results from article PMC12775434, “Ultra-large virtual screening unveils potent agonists of the neuromodulatory orphan receptor GPR139” (Nature Communications, 2025).
Several values for one entry are separate records, joined by “and”; a condition that tells them apart may be missing. Equal values may be shown once.

How the values were obtained:
Assay type in all cases: cell-based
GPR139 [1] = biological target: T1, GPR139 (Homo sapiens, UniProt Q6DWJ6); assay: Ca2+ mobilization assay, agonist mode, stable GPR139-CHOk1 cell line; conditions: for EC50 / Emax: Supplementary Table 2, mean ± SEM; for EC50: read-out: pEC50 Ca2+ (converted); for Emax: normalized to Lundbeck Cmp 1a, read-out: Emax (%) Ca2+
T1 sequence (Q6DWJ6 1-353): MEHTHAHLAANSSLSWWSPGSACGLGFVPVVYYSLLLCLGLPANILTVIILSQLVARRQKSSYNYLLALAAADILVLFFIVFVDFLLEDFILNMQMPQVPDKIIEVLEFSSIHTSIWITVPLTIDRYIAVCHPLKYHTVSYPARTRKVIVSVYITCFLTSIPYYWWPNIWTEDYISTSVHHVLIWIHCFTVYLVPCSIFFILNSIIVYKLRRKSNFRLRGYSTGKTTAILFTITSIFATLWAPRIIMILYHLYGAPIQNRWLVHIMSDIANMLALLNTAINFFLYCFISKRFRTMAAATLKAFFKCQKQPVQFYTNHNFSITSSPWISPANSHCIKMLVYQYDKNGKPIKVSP
Method in brief: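 Agonist activity of compounds is assessed in stably transfected CHO-K1 cells using the calcium dye Fluo-4 at 37 °C in HEPES-buffered HBSS (pH 7.4). Efficacy is expressed relative to the reference agonist Lundbeck Cmp 1a, set as 100%.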

GPR139 [2] = biological target: T1, GPR139; assay: Ca2+ mobilization assay, antagonist mode (EC80 800 nM Lundbeck Cmp 1a after 20 min preincubation), GPR139-CHOk1; conditions: individual replicates (Supplementary Figure 4)
Method in brief: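 Fluo-4-loaded GPR139-CHOk1 cells in HEPES-buffered HBSS (pH 7.4, 2.5 mM probenecid) given test compounds at 10 µM, then after 20 min challenged with 800 nM Lundbeck Cmp 1a (EC80). Calcium fluorescence read at 37 °C, 485/525 nm.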

[3] = biological target: T2, human muscarinic acetylcholine M1 receptor (M1R) (Homo sapiens, UniProt P11229); assay: Ca2+ mobilization counter-screen in M1R-CHOk1 cells; conditions: individual replicates (Supplementary Figure 5)
T2 sequence (P11229 1-460): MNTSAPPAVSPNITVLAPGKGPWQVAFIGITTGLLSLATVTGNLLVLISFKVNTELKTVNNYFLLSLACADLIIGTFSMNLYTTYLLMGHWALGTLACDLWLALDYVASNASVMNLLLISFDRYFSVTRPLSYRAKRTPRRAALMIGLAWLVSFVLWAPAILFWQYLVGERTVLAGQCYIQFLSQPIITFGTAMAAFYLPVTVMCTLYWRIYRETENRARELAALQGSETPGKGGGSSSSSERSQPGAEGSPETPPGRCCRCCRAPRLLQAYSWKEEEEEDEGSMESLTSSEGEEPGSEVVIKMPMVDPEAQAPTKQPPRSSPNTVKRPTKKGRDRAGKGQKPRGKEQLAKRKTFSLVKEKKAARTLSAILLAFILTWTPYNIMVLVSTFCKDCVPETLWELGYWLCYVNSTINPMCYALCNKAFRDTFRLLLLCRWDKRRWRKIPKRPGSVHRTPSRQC
Method in brief: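 M1R-CHOk1 cells seeded at 30,000/well for 20–24 h were loaded with 2 µM Fluo-4 AM for 1 h at 37 °C in HEPES-buffered HBSS (pH 7.4, 2.5 mM probenecid). Compounds were added after baseline reads, with DMSO at most 0.3% final. Calcium mobilization was read at 37 °C, excitation 485/emission 525 nm.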

[4] = Agonist mode, individual replicates (Supplementary Figure 4)
[5] = log [Compound] M = -4.5, individual replicate columns
[6] = log [Compound] M = -5.0, individual replicate columns
[7] = log [Compound] M = -5.5, individual replicate columns
[8] = log [Compound] M = -6.0, individual replicate columns
[9] = log [Compound] M = -6.5, individual replicate columns
[10] = log [Compound] M = -7.0, individual replicate columns
[11] = log [Compound] M = -7.5, individual replicate columns
[12] = log [Compound] M = -8.0, individual replicate columns
[13] = log [Compound] M = -8.5, individual replicate columns
[14] = log [Compound] M = -9.0, individual replicate columns

EC50 (GPR139 [1]) | Emax (GPR139 [1]) | Structure (SMILES) | Ca2+ signal (% of Cmp 1a) (GPR139 [1]; [4]) | change in potency with larger substituents on the thiophene ring (GPR139 [1]; Ca2+ mobilization) | Ca2+ signal (% of Cmp 1a) (GPR139 [1]; [5]) | Ca2+ signal (% of Cmp 1a) (GPR139 [1]; [6]) | Ca2+ signal (% of Cmp 1a) (GPR139 [1]; [7]) | Ca2+ signal (% of Cmp 1a) (GPR139 [1]; [8]) | Ca2+ signal (% of Cmp 1a) (GPR139 [1]; [9]) | Ca2+ signal (% of Cmp 1a) (GPR139 [1]; [10]) | Ca2+ signal (% of Cmp 1a) (GPR139 [1]; [11]) | Ca2+ signal (% of Cmp 1a) (GPR139 [1]; [12]) | Ca2+ signal (% of Cmp 1a) (GPR139 [1]; [13]) | Ca2+ signal (% of Cmp 1a) (GPR139 [1]; [14]) | Ca2+ signal (% of Cmp 1a) (GPR139 [2]) | Ca2+ signal (% of Carbachol) [3]
1580 nM | 99 ± 2% | Cc1nc2cc(-c3nc(CC(=O)NC(C)c4ccccc4)no3)ccc2o1 (stereo not shown) [Compound 1.22, CC(C1=CC=CC=C1)NC(CC2=NOC(C3=CC4=C(OC(C)=N4)C=C3)=N2)=O] | 71 % of Cmp 1a and 37 % of Cmp 1a and 44 % of Cmp 1a | three-fold reduction to a complete loss of activity | 109 % of Cmp 1a and 96 % of Cmp 1a and 93 % of Cmp 1a and 83 % of Cmp 1a and 99 % of Cmp 1a | 90 % of Cmp 1a and 71 % of Cmp 1a and 95 % of Cmp 1a and 84 % of Cmp 1a and 101 % of Cmp 1a | 58 % of Cmp 1a and 43 % of Cmp 1a and 99 % of Cmp 1a and 59 % of Cmp 1a and 110 % of Cmp 1a | 50 % of Cmp 1a and 22 % of Cmp 1a and 51 % of Cmp 1a and 35 % of Cmp 1a and 73 % of Cmp 1a | 30 % of Cmp 1a and 0.909 % of Cmp 1a and 8 % of Cmp 1a and 29 % of Cmp 1a and 36 % of Cmp 1a | 1.28 % of Cmp 1a and -0.203 % of Cmp 1a and -2.54 % of Cmp 1a and 0.332 % of Cmp 1a and 14 % of Cmp 1a | 1.35 % of Cmp 1a and 7.39 % of Cmp 1a and -10 % of Cmp 1a and -1.26 % of Cmp 1a and 4 % of Cmp 1a | 7 % of Cmp 1a and 10 % of Cmp 1a and -6 % of Cmp 1a and 0.314 % of Cmp 1a and 2.72 % of Cmp 1a | -3.6 % of Cmp 1a and 18 % of Cmp 1a and -4.69 % of Cmp 1a and -1.59 % of Cmp 1a and 9 % of Cmp 1a | -5 % of Cmp 1a and 7.5 % of Cmp 1a and -3.72 % of Cmp 1a and 1.69 % of Cmp 1a and 6.38 % of Cmp 1a | 13 % of Cmp 1a and 39 % of Cmp 1a and 19 % of Cmp 1a | -19 % of Carbachol and -2.46 % of Carbachol and -2.2 % of Carbachol
1580 nM | 95 ± 3% | Cc1cc(-c2nc(CC(=O)NC(C)c3ccccc3)no2)no1 (stereo not shown) [Compound 1.23, CC(C1=CC=CC=C1)NC(CC2=NOC(C3=NOC(C)=C3)=N2)=O] | 72 % of Cmp 1a and 57 % of Cmp 1a and 85 % of Cmp 1a |  | 95 % of Cmp 1a and 102 % of Cmp 1a and 98 % of Cmp 1a and 93 % of Cmp 1a | 96 % of Cmp 1a and 81 % of Cmp 1a and 85 % of Cmp 1a and 77 % of Cmp 1a | 80 % of Cmp 1a and 55 % of Cmp 1a and 48 % of Cmp 1a and 70 % of Cmp 1a | 56 % of Cmp 1a and 30 % of Cmp 1a and 19 % of Cmp 1a and 38 % of Cmp 1a | 38 % of Cmp 1a and 9 % of Cmp 1a and -1 % of Cmp 1a and 11 % of Cmp 1a | 18 % of Cmp 1a and 5.7 % of Cmp 1a and 1.07 % of Cmp 1a and 6 % of Cmp 1a | 12 % of Cmp 1a (2×) and 15 % of Cmp 1a and 0.388 % of Cmp 1a | -3 % of Cmp 1a and 11 % of Cmp 1a and 10 % of Cmp 1a and 0.199 % of Cmp 1a | -4.71 % of Cmp 1a and 7 % of Cmp 1a and 14 % of Cmp 1a and -1.47 % of Cmp 1a | 4 % of Cmp 1a and 6.41 % of Cmp 1a and 7 % of Cmp 1a and -2.26 % of Cmp 1a | 15 % of Cmp 1a and 20 % of Cmp 1a and 10 % of Cmp 1a | -3 % of Carbachol and 4.36 % of Carbachol and 7 % of Carbachol
